From patent publication US4048325A, “Low toxicity method of inhibiting sickling of sickle erythrocytes” (The United States of America as represented by the United …, priority 1976, dated 1977)
Where two headings read alike, the source gives them in different places. Values belong to the compound of their own block, whether it stands above or below them.

Columns and labels:
[1] = test system: sickle erythrocytes; experiment: in vitro sickling of sickle erythrocytes after amidination; type: cell-based, human
Protocol: (§1) Cells were washed with Krebs-Henseleit Buffer (pH 7.4) to remove non-erythrocyte blood elements and resuspended in the same medium to a final hematocrit of 20-40%. Erythrocyte suspensions (4% hematocrit) were incubated in KHB (pH 8.5) containing freshly dissolved EA (1-10 mM). After incubation at room temperature (20°-22°) for 30 min, the cells were washed twice with KH buffer (pH 7.4) and resuspended either in the original plasma (40% hematocrit) for analysis of sickling or in other solutions as described below. To amidinate under anoxia the cells were equilibrated with nitrogen in a tonometer until no oxygen could be detected polarographically. Imidates were added in the dry state to anaerobic cell suspensions. Following treatment, the suspensions were diluted 1:1 with 0.1M Tris-acetate--0.15M NaCl buffer (pH 6.0) to quench amidination, and the cells washed as described above.
The cells were deoxygenated with freshly prepared sodium metabisulfite, fixed with 10% formaldehyde, and examined microscopically. Hypoxic conditions: Cell suspensions were deoxygenated by equilibration with 3% oxygen. Five hundred cells were conted to ascertain the extent of sickling.

[2] = target: T1, hemoglobin of normal cells (Homo sapiens, UniProt P68871+P69905); experiment: hemoglobin-oxygen affinity (P50), normal cells; type: cell-based; details: 1 mM
T1 construct: endogenous in cells; host or cells: normal erythrocytes from healthy volunteers
Protocol: as §1
(§2) The oxygen affinity of whole blood (P50) was determined in a tonometer as in B. H. Lubin et al, cited above.
(§3) Since oxyhemoglobin and deoxyhemoglobin differ in quaternary structure and since the structural differences may affect the manner in which imidates react with hemoglobin, amidination was carried out in the presence and absence of oxygen and the effect on oxygen affinity was then examined.

[3] = in vivo; details: ip, intraperitoneal
Text: Each compound was made up in KH buffer (280 Mosm) buffered to pH 7.4 with 5N NaOH. The final volume for each injection was 1 cc in rats in 0.5 cc in mice.

[4] = test system: NADH oxidase; experiment: electron transport: NADH oxidase of mitochondrial inner membranes; type: biochemical; details: for effect of treatment on NADH oxidase, in words: at comparable levels of amidination
Text: (§4) When compared to bifunctional imidates, monoimidates have major advantages as therapeutic agents for the treatment of sickle cell disease. One important difference between the two classes of reagents is their relative effect on enzyme activity. […] The results as shown, respectively in Table II and FIG. 2. To facilitate a comparison of imidate action, effects were related to extent of amidination as measured by percent amino group decrease rather than the absolute reagent concentration.

[5] = test system: erythrocytes; experiment: hemolysis following incubation under the conditions of amidination; type: cell-based, human; details: after incubation under the conditions of amidination
Protocol: as §1

[6] = target: T2, hemoglobin of sickle cells (Homo sapiens, UniProt P68871+P69905, E7V); experiment: hemoglobin-oxygen affinity (P50), sickle cells; type: cell-based; details: 1 mM
T2 construct: endogenous in cells; host or cells: sickle erythrocytes (Children's Hospital, Oakland, CA)
Protocol: as §1, §2, §3

[7] = test system: rats; experiment: animal survival after exchange of treated blood; type: in vivo, rat; details: 30mM in whole blood
Protocol: In experiments conducted to determine the effect of monoimidates on animal survival, rats were treated with ethylacetimidate at levels of 30mM in whole blood under conditions similar to the in vitro studies described above. This level fo treatment is at least 30 times higher than required for prevention of sickling in vitro. At least three-fourths of the blood was treated and exchanged.

[8] = test system: succinate oxidase; experiment: electron transport: succinate oxidase of mitochondrial inner membranes; type: biochemical; details: for effect of treatment on succinate oxidase, in words: at comparable levels of amidination
Text: as §4

[9] = test system: inner membrane ATPase (adenosine triphosphatase); experiment: inner membrane ATPase activity; type: biochemical; details: at comparable levels of amidination (FIG. 2)
Text: FIG. 2 is a graph illustating the effect of dimethylsuberimidate (DMS) and ethylacetimidate (EA) on inner membrane ATPase (adenosine triphosphatase) activity. Open symbols represent DMS-treated membranes, and closed symbols represent EA-treated membranes.
as §4
In the experiment designated by the closed circles in FIG. 2, membranes were treated with high concentrations of EA to determine the extent of amidination required for complete inhibition of activity. The concentrations of EA required for complete inhibition of activity are considerably in excess of the amount required to inhibit sickling.

[10] = test system: ascorbate-TMPD oxidase; experiment: electron transport: ascorbate-TMPD oxidase of mitochondrial inner membranes; type: biochemical; details: for effect of treatment on ascorbate-TMPD oxidase, in words: at comparable levels of amidination
Text: as §4

[11] = test system: sickle erythrocytes; details: Lubin et al 1975; cited from earlier work
[12] = test system: sickle erythrocytes; experiment: net potassium leak which accompanies sickling; type: cell-based, human

Compound: CCCC(=N)OC [methylbutyrimidate, methyl butyrimidate]
- prevention of in vitro sickling compared with EA [1]: as effective as EA

Compound: CCOC(C)=N [EA, ethyl acetimidate]
- P50 ([2]; amidinated deoxygenated): 28.0 mm Hg
- P50 ([2]; amidinated oxygenated): 25.0 mm Hg
- LD50 ([3]; mouse, mice, read-out: LD50 (Lethal dose for 50% of the animals)): 950 mg/kg
- LD50 ([3]; rat, rats): 900 mg/kg
- NADH oxidase activity (% control) ([4]; 4 mM): 78 % control
- NADH oxidase activity (% control) ([4]; 20 mM): 56 % control
- effect of treatment on NADH oxidase, in words [4]: significantly less sensitive to EA than DMS
- hemolysis [5]: Negligible hemolysis
- P50 ([6]; amidinated deoxygenated): 35.0 mm Hg
- P50 ([6]; amidinated oxygenated): 27.0 mm Hg
- inhibition of sickling ([1]; 2-5 mM imidate, in vitro): nearly complete inhibition
- inhibition at 1000 µM ([1]; Homo sapiens, Erythrocyte, 1 mM imidate, in vitro, read-out: prevention of sickling): 70 to 80%
- prevention of sickling on renewed deoxygenation of cells amidinated under anoxia ([1]; compared with amidination in the presence of oxygen): sickling was prevented to the same degree
- effectiveness under hypoxic and anoxic conditions ([1]; deoxygenation with 3% oxygen or sodium metabisulfite): effective under both hypoxic and anoxic conditions
- inhibition of sickling ([1]; low imidate concentrations (1-2mM)): approximately 80%
- deleterious effects after exchange of treated blood ([7]; at least three-fourths of the blood treated and exchanged, three experiments): no deleterious effects
- hematocrits after treatment ([7]; due to the loss of blood during the transfusion): slightly reduced
- Succinate oxidase activity (% control) ([8]; 4 mM): 61 % control
- Succinate oxidase activity (% control) ([8]; 20 mM): 45 % control
- effect of treatment on succinate oxidase, in words [8]: significantly less sensitive to EA than DMS
- effect of treatment on ATPase activity, in words [9]: significantly less inhibitory
- Ascorbate-TMPD oxidase activity (% control) ([10]; 4 mM): 73 % control
- Ascorbate-TMPD oxidase activity (% control) ([10]; 20 mM): 64 % control
- effect of treatment on ascorbate-TMPD oxidase, in words [10]: significantly less sensitive to EA than DMS

- NADH oxidase activity (% control) ([4]; 2 mM): 58 % control
- NADH oxidase activity (% control) ([4]; 10 mM): 10 % control
- effect of treatment on NADH oxidase, in words [4]: markedly inhibited
- Succinate oxidase activity (% control) ([8]; 2 mM): 62 % control
- Succinate oxidase activity (% control) ([8]; 10 mM): 22 % control
- effect of treatment on succinate oxidase, in words [8]: markedly inhibited
- effect of treatment on ATPase activity, in words [9]: markedly inhibited
- Ascorbate-TMPD oxidase activity (% control) ([10]; 2 mM): 61 % control
- Ascorbate-TMPD oxidase activity (% control) ([10]; 10 mM): 28 % control
- effect of treatment on ascorbate-TMPD oxidase, in words [10]: markedly inhibited
Compound: COC(=N)CCCCCCC(=N)OC [DMS, dimethylsuberimidate, reference compound]

Compound: COC(=N)CCCCC(=N)OC [DMA, dimethyl adipimidate]
- inhibition of sickling in vitro (literature report) [11]: inhibit sickling in vitro

Compound: COC(C)=N [methylacetimidate, methyl acetimidate]
- net potassium leak which accompanies sickling [12]: elimination of the net potassium leak
- prevention of in vitro sickling compared with EA [1]: as effective as EA
